Measurements: US10874685B2, “Pancreatic cancer therapy and diagnosis” (Deutsches Krebsforschungszentrum Stiftung des Öffentlichen …, priority 2014, dated 2020)
Entries after “also recorded” stand apart in the source; their conditions may differ.

How the values were obtained:
MIAPaCa-2 xenograft = experiment: Combination therapy in NSG mice, MIAPaCa-2 xenograft model; type: in vivo; details: i.p. 16 days; pimozide 10 mg/kg daily; gemcitabine 20 mg/kg every 4 days
From the text: Tumor volumes normalized to initial measurement shown in the y-axis every four days following treatment with either vehicle (gray line), the chemotherapeutic gemcitabine (green line), a combination therapy of 2-deoxy-D-glucose, atorvastatin and pimozide (2DG+ATR+Pim, redline), or a combination therapy of 2DG+ATR+Pim and gemcitabine (2DG+ATR+Pim+Gem, red dashed line) (FIG. 12A). […] Tumor weight (FIG. 12C) and volume of samples (FIG. 12D) harvested following treatment with, from left to right, control (Vehicle), 2DG+ATR, Pim alone, Pim+2DG+ATR, Gem alone, 2DG+ATR+Gem, Pim+Gem, or Pim+2DG+ATR+Gem.
NOD severe combined immunodeficiency gamma (NSG) mice were subcutaneously injected in the right flank with five million MIAPaCa-2 cells. Once tumors were detectable (200 mm^3), mice were randomized into 8 groups (5 in each group) and treated through intraperitoneal injection as indicated for 16 days. All drugs were given every day whereas gemcitabine was given every 4 days, alone or in combination. Experiment was terminated when control animals became moribund. The growth of tumors was measured every 4 days. Tumors were harvested and photographed. Tumor weights and volumes were measured.
The efficacy of the combined treatment approach was investigated using a MIAPaCa-2 xenograft model of pancreatic cancer.

[1] = tested on: MIAPaCa-2, PANC-1 and AsPC-1 cells; experiment: Free cholesterol measurement (Filipin staining) in PDAC cell lines; type: cell-based, human; details: 10 μM, 18 hours; vs DMSO
From the text: (§1) Measurement of 2-deoxy-D-glucose uptake shown on the y-axis relative to control by PDAC cell lines (MIAPaCa2, left; PANC-1, middle; AsPC1, right) treated with DMSO (C), pimozide (P) or haloperidol (H) (FIG. 10A). Abundance of free cholesterol, as measured by staining with filipin, after treatment with haloperidol (H) or pimozide (P) in PDAC cell lines (MIAPaCa2, left; PANC-1, middle; AsPC1, right) (FIG. 10B top). Representative micrographs of filipin-labelled cholesterol. PDAC (MIAPaCa2, top; PANC-1, middle; AsPC1, bottom) cells were seeded for 24 hours and treated with 10 μM haloperidol (H) or pimozide (P) or DMSO for 18 hours (FIG. 10B bottom). Red-fluorescence represents propidium iodide (PI)-stained nuclei and blue-fluorescence represents filipin-stained cholesterol. mRNA levels of genes relative to R-actin shown on the y-axis involved in cholesterol biosynthesis (from left to right: SREBP1, SREBP2, INSIG1, HMGCR, LDLR) measured by qRT-PCR 18 hours post-treatment with DMSO (C), haloperidol (H) or pimozide (P) in three PDAC cell lines (MIAPaCa2, top; PANC-1, middle; AsPC1, bottom) (FIG. 10C).
Cancer cells were seeded for 24 hours and treated with pimozide, haloperidol or DMSO for 18 hours. The cells were fixed with paraformaldehyde, stained with Filipin™ and propidium iodide (PI), and photographed. Filipin™ is a fluorescent polyene antibiotic that binds to free cholesterol. […]

[2] = tested on: PANC-1, MIAPaCa-2 and AsPC-1 cell lines; experiment: PDAC cell line growth curves under combination therapy; type: cell-based, human; details: over time
From the text: FIGS. 11A and 11B show PDAC cell line growth curves following combination therapy with DRD2 antagonists, 2-deoxy-D-glucose, and atorvastatin. Percentage cell growth shown on the y-axis following treatment with control (blue line), pimozide (Pim, gray line), atorvastatin and 2-deoxy-D-glucose (ATR+2-DG, red line) and combination of Pim and ATR+2-DG (green line) over time in PANC-1 (top), MIAPaCa-2 (middle) and AsPC-1 (bottom) cell lines (FIG. 11A). Haloperidol (Hal, gray line) is used as the DRD2 antagonist for use alone or in combination with ATR+2-DG as described in A (FIG. 11B). Dosage are indicated for each cell line.
PDAC cell proliferation was measured during pharmacological inhibition of DRD2 alone and in combination with blockade of glycolysis and cholesterol synthesis. To suppress glycolysis, 2-DG, a glucose analog which is a competitor inhibitor of glucose metabolism, was used. To inhibit cholesterol synthesis, atorvastatin (ATR), a competitive inhibitor of 3-hydroxy-3-methylglutaryl-coenzyme A (HMG-CoA) reductase in the cholesterol biosynthesis pathway was used.

[3] = tested on: MIAPaCa-2, PANC-1 and AsPC-1 cells; experiment: Glucose uptake measurement (labelled 2-DG) in PDAC cell lines; type: cell-based, human; details: all three cell lines; relative to DMSO control
From the text: as §1
The induction effect of pimozide or haloperidol on labeled 2-DG uptake in cancer cells were determined from measurement of the fluorescence intensity of cell lysates. […]

PANC-1 cells = experiment: Wound healing (scratching) assay for cell migration; type: cell-based, human; details: PANC-1, increasing concentrations, 10 h
Experimental: PANC-1 cells were plated in the chamber were already attached in 12 well plate and allowed to grow for 24 h. Then, a wound was made in the confluent monolayer by removing the chamber. Cells were exposed to increasing concentration of Pimozide (FIG. 6A) or L741 (FIG. 6B) and vehicle for 10 h. Wound gap closure was measured for each drug concentration by comparing the gap at time 0 h to the one at the time 10 h when the gap closed in negative control and normalized to untreated condition.
PANC-1 cells were seeded into the 35 mm-dish culture-silicon Insert frames from Ibidi where already attached to the 6 well culture plate. When 96-98% confluency was achieved, the insert frames were removed using sterile forceps to reach cell free gap. To create a reference point for subsequent measurements, three different part of the gap was marked on the underside of the plastic. Floating cells and cell debris were washed using PBS, relative culture medium was added to each wells and migration distance was photographed using a Zeiss Axiovert 24 light microscope at zero time in the marked areas. Afterward, the wells were treated by addition of DMSO as control and different increasing concentration of Pim and L741. Plates were then placed into the incubator and the cells were allowed to migrate until the time when the gap for the […] closed (t time). Images were taken from the marked areas again. This assay was performed employing various concentrations of drugs at which maximum 5% viability inhibition was observed after 10 h treatment.

MIAPaCa-2 cells = experiment: Transwell (Boyden chamber) migration assay, MIAPaCa-2; type: cell-based, human; details: MIAPaCa-2, Boyden chamber, increasing doses, 4 h
Experimental: MIAPaCa-2 cells were platted on transwells and exposed to increasing doses of Pimozide for 4 h (FIG. 7A). Migrated cells were measured and normalized to their controls. Values are the mean+/−SD of four replicate.
This assay for confirmation of cell migration was performed using 96-well Costar Transwell chambers with 8.0 μm pore polycarbonate membranes (Corning Inc., Corning, N.Y.). Cell culture inserts transwells were placed in wells of 96 well plate. The bottom chambers were filled with 120 μl of cell culture medium containing 10% FBS. Cells suspended in 70 μl serum free medium with DMSO as negative control or drugs were added to the upper part of each chamber followed by incubation at 37° C. with 5% CO2. After 4 h the medium was aspirated from the top of chambers and the bottom side of chambers washed with PBS. Those that have penetrated to the bottom side of the membrane were detached with 0.25% tryspin/EDTA during 3 min (37° C.) followed by inactivation of trypsine with soybean (Sigma Aldrich). […] Six replicates were performed for each treatment condition to predict the responder outcome variable and the luminescence signal which is corresponding to the number of live suspended cells was measured. Graph was plotted according to the readings obtained. […]

For `O=c1[nH]c2ccccc2n1C1CCN(CCCC(c2ccc(F)cc2)c2ccc(F)cc2)CC1` [pimozide], the tumor volume (MIAPaCa-2 xenograft) was “reduced tumor weight and volume”, the tumor weight (MIAPaCa-2 xenograft) was “reduced tumor weight” and the “abundance of free cholesterol (Filipin staining)” value [1] was “increased the abundance of free cholesterol; also recorded: enhanced glucose and cholesterol uptake”. The cell growth [2] was “reduced cell growth”, the “glucose uptake (intracellular labelled 2-deoxy-D-glucose)” value [3] was “elevated uptake of glucose; also recorded: enhanced glucose and cholesterol uptake” and the “tumor cell migration (wound gap closure)” value (PANC-1 cells) was “tumor cell migration was affected”. For the same molecule, the “tumor cell migration (wound gap closure)” value (PANC-1 cells; listed as Pimozide) was “dose dependent inhibitory effect” and the migrated cells (MIAPaCa-2 cells) was “significantly reduced migrated cells; also recorded: dose dependent inhibitory effect”.
